System: type 2 diabetic subjects
Assay: Euglycemic glucose clamp for 32 h after s.c. injection of basal insulin
Assay type: in vivo, human

Substance | plasma free fatty acid concentrations higher with detemir compared with glargine (throughout the 32-h clamp study, P < 0.001) | plasma free fatty acid concentrations higher with detemir compared with NPH (throughout the 32-h clamp study, P = 0.003) | interquartile range in time of duration of action (plasma glucose >136 mg/dL) (32-h clamp, statistical significance achieved only versus detemir) | mean GIR AUC0–32 h greater with glargine than NPH (32-h euglycemic clamp, 0.4 units/kg s.c., relative difference versus NPH) | mean GIR AUC0–32 h greater with glargine than detemir (32-h euglycemic clamp, 0.4 units/kg s.c., relative difference versus detemir)
detemir | +26% | +15% |  |  | 
glargine |  |  | smaller interquartile range in time of duration of action than NPH and detemir | 31% | 42%

Source: paper PMC3114339 (Diabetes Care, 2011)
